“Also recorded” adds a separate entry of the source.
Tested on: patients with refractory metastatic colorectal cancer (mCRC)
Assay: PFS, OS and disease control in the control cohort of refractory mCRC patients receiving regorafenib (n=52, Italy), by baseline characteristics and SNP genotype
Assay type: in vivo, human
Conditions: for Median OS (months) / Median PFS (months): ITA REGORA cohort; for Disease Control CR/PR/SD, patients n (%) / Median OS (95% CI) / Median PFS (95% CI) / PD, patients n (%) / HR OS (95% CI) / HR PFS (95% CI) / Median OS / Median PFS / HR OS / HR PFS: control cohort
Protocol: All patients underwent the treatment in salvage-line setting.
Patients in the control group received 160 mg regorafenib (Bayer, Leverkusen, Germany) once daily from day 1 to 21 every 4 weeks. Doses were adjusted based on haematological and non-haematological adverse events at the treating physician's discretion in accordance with the manufacturer's recommendations. The analyses were approved by the University of Southern California (USC) Institutional Review Board of Medical Sciences and conducted at the USC/Norris Comprehensive Cancer Center in accordance with the Declaration of Helsinki and Good Clinical Practice Guidelines.
Genomic DNA was extracted from peripheral whole blood in patients of all cohorts using the QIAmp Kit (Qiagen, Valencia, Calif., USA) according to the manufacturer's protocol (www.qiagen.com). The candidate SNPs were genotyped using PCR-based direct DNA sequence analysis by ABI 3100A Capillary Genetic Analyzer and Sequencing Scanner v1.0 (Applied Biosystems). Amplification of extracted DNA was carried out using both forward and reverse primers for each gene polymorphism as shown in Table 1. […] The investigators analyzing SNPs were blinded to the clinical data of the study patients.
The primary endpoint in this study was progression-free survival (PFS), and the secondary endpoints were overall survival (OS) and disease control rate (DCR). PFS was calculated from the date of starting treatment to the first observation of disease progression or death from any cause. If a patient had no disease progression or death, PFS was censored at the date of last follow up. OS was calculated from the date of starting treatment until the date of death from any cause or the date of the last follow-up, at which point OS was censored. The disease control rate (DCR) was defined as the proportion of patients who achieved a stable disease (SD) or […] according to RECISTv1.1. Chi-square test was used to examine the difference in baseline patient characteristics among the three cohorts. Allelic distribution of all SNPs by ethnicity for deviation from Hardy-Weinberg equilibrium and the allelic frequencies of SNPs were tested using the Chi-square tests with one degree of freedom. The associations between candidate SNPs and disease control, and toxicities were examined using contingency tables and Fisher's exact test. The associations of SNPs with PFS and OS were analysed using Kaplan-Meier curves and the log-rank test. Because the true mode of inheritance of candidate SNPs was not established yet, a codominant or dominant genetic model if appropriate was considered.
All patients underwent the treatment in salvage-line setting. […] In all patients, adverse events were graded according to the Common Terminology Criteria for Adverse Events, version 4.0.
Patients in the control group received 160 mg regorafenib (Bayer, Leverkusen, Germany) once daily from day 1 to 21 every 4 weeks. Doses were adjusted based on haematological and non-haematological adverse events at treating physician's discretion in accordance with the manufacturer's recommendations. The analyses were approved by the University of Southern California (USC) Institutional Review Board of Medical Sciences and conducted at the USC/Norris Comprehensive Cancer Center in accordance with the Declaration of Helsinki and Good Clinical Practice Guidelines.
Genomic DNA was extracted from peripheral whole blood in patients of all cohorts using the QIAmp Kit (Qiagen, Valencia, Calif., USA) according to the manufacturer's protocol (www.qiagen.com). The candidate SNPs were tested using PCR-based direct DNA sequence analysis by ABI 3100A Capillary Genetic Analyzer and Sequencing Scanner v1.0 (Applied Biosystems). […] The investigators analyzing SNPs were blinded to the clinical data.
The primary endpoint in this study was progression-free survival (PFS), and the secondary endpoints were overall survival (OS) and disease control rate (DCR). […]

[1] = ATM rs609429 Any G vs C/C (Ref.), multivariable
[2] = ATM rs609429 Any G vs C/C (Ref.), univariate
[3] = Adjuvant history No vs Yes (Ref.), univariate
[4] = Age ≥61 vs <61 (Ref.), univariate
[5] = CHEK2 rs2267130 Any C vs T/T (Ref.), multivariable
[6] = CHEK2 rs2267130 Any C vs T/T (Ref.), univariate
[7] = CHEK2 rs2267130 C/C vs T/T (Ref.), multivariable
[8] = CHEK2 rs2267130 C/C vs T/T (Ref.), univariate
[9] = CHEK2 rs2267130 T/C vs T/T (Ref.), multivariable
[10] = CHEK2 rs2267130 T/C vs T/T (Ref.), univariate
[11] = KRAS Mutant vs Wild type (Ref.), univariate
[12] = LN metastasis No vs Yes (Ref.), univariate
[13] = Liver metastasis No vs Yes (Ref.), univariate
[14] = Lung metastasis No vs Yes (Ref.), univariate
[15] = Number of metastases >2 vs ≤2 (Ref.), univariate
[16] = Performance status ECOG 1 vs ECOG 0 (Ref.), univariate
[17] = Peritoneal No vs Yes (Ref.), univariate
[18] = Pre-chemo numbers ≥4 vs <4 (Ref.), univariate
[19] = Primary tumor resection No vs Yes (Ref.), univariate

## CNC(=O)c1cc(Oc2ccc(NC(=O)Nc3ccc(Cl)c(C(F)(F)F)c3)c(F)c2)ccn1 [regorafenib]
ATM rs609429 C/C (n=28)
  Median OS (months): 4.5 months
ATM rs609429 G/C or G/G (n=24)
  Median OS (months): 5.9 months
XRCC3 rs861539 G/A (n=37)
  Median OS (months): 5.9 months
  Median PFS (months): 1.9 months
XRCC3 rs861539 G/G (n=15)
  Median OS (months): 4.1 months
  Median PFS (months): 1.7 months
Control cohort receiving regorafenib without previous TAS-102, uni- and multivariate analyses
  association of candidate SNPs with PFS or OS: no significant differences; also recorded: no significant association
ATM rs609429 Any G
  Disease Control CR/PR/SD, patients n (%): 9 (38%)
  Median OS (95% CI): 5.9 (3.5, 10.2) months
  Median PFS (95% CI): 2.0 (1.7, 3.1) months
  PD, patients n (%): 15 (63%)
[1]
  HR OS (95% CI): 0.84 (0.47, 1.48)
  HR PFS (95% CI): 1.06 (0.60, 1.87)
[2]
  HR OS (95% CI): 1.91 (0.44, 8.31)
  HR PFS (95% CI): 0.95 (0.55, 1.66)
ATM rs609429 C/C
  Disease Control CR/PR/SD, patients n (%): 8 (32%)
  Median OS (95% CI): 4.6 (2.6, 7.6) months
  Median PFS (95% CI): 1.9 (1.6, 2.8) months
  PD, patients n (%): 17 (68%)
ATM rs609429 C/G
  Disease Control CR/PR/SD, patients n (%): 8 (38%)
  PD, patients n (%): 13 (62%)
ATM rs609429 G/G
  Disease Control CR/PR/SD, patients n (%): 1 (33%)
  PD, patients n (%): 2 (67%)
Adjuvant history No
  Median OS: 5.9 months
  Median PFS: 2.0 months
[3]
  HR OS: 0.59
  HR PFS: 0.71
Adjuvant history Yes
  Median OS: 3.9 months
  Median PFS: 1.8 months
Age <61
  Median OS: 5.1 months
  Median PFS: 1.8 months
Age ≥61
  Median OS: 5.8 months
  Median PFS: 2.1 months
[4]
  HR OS: 0.74
  HR PFS: 0.58
CHEK2 rs2267130 Any C
  Disease Control CR/PR/SD, patients n (%): 13 (36%)
  Median OS (95% CI): 5.9 (4.4, 7.9) months
  Median PFS (95% CI): 1.8 (1.7, 2.8) months
  PD, patients n (%): 23 (64%)
[5]
  HR OS (95% CI): 0.81 (0.42, 1.54)
  HR PFS (95% CI): 1.22 (0.65, 2.28)
[6]
  HR OS (95% CI): 0.80 (0.44, 1.48)
  HR PFS (95% CI): 1.07 (0.58, 1.95)
CHEK2 rs2267130 C/C
  Disease Control CR/PR/SD, patients n (%): 3 (27%)
  Median OS (95% CI): 5.7 (2.0, 7.8) months
  Median PFS (95% CI): 2.0 (1.5, 2.7) months
  PD, patients n (%): 8 (73%)
[7]
  HR OS (95% CI): 0.90 (0.41, 2.00)
  HR PFS (95% CI): 1.35 (0.61, 2.99)
[8]
  HR OS (95% CI): 0.89 (0.41, 1.97)
  HR PFS (95% CI): 1.18 (0.54, 2.59)
CHEK2 rs2267130 T/C
  Disease Control CR/PR/SD, patients n (%): 10 (40%)
  Median OS (95% CI): 6.2 (2.4, 8.9) months
  Median PFS (95% CI): 1.8 (1.6, 3.1) months
  PD, patients n (%): 15 (60%)
[9]
  HR OS (95% CI): 0.76 (0.38, 1.53)
  HR PFS (95% CI): 1.15 (0.58, 2.27)
[10]
  HR OS (95% CI): 0.77 (0.40, 1.48)
  HR PFS (95% CI): 1.02 (0.54, 1.95)
CHEK2 rs2267130 T/T
  Disease Control CR/PR/SD, patients n (%): 4 (31%)
  Median OS (95% CI): 3.8 (2.2, 8.0) months
  Median PFS (95% CI): 1.9 (1.4, 3.4) months
  PD, patients n (%): 9 (69%)
KRAS Mutant
  Median OS: 4.8 months
  Median PFS: 2.0 months
[11]
  HR OS: 0.93
  HR PFS: 1.05
KRAS Wild type
  Median OS: 6.3 months
  Median PFS: 1.9 months
LN metastasis No
  Median OS: 7.7 months
  Median PFS: 2.8 months
[12]
  HR OS: 0.62
  HR PFS: 0.52
LN metastasis Yes
  Median OS: 3.8 months
  Median PFS: 1.8 months
Liver metastasis No
  Median OS: 6.6 months
  Median PFS: 4.8 months
[13]
  HR OS: 0.61
  HR PFS: 0.46
Liver metastasis Yes
  Median OS: 4.7 months
  Median PFS: 1.9 months
Lung metastasis No
  Median OS: 3.7 months
  Median PFS: 2.0 months
[14]
  HR OS: 1.24
  HR PFS: 1.17
Lung metastasis Yes
  Median OS: 5.9 months
  Median PFS: 1.9 months
Number of metastases >2
  Median OS: 4.0 months
  Median PFS: 1.9 months
[15]
  HR OS: 1.59
  HR PFS: 1.86
Number of metastases ≤2
  Median OS: 6.3 months
  Median PFS: 2.8 months
Performance status ECOG 0
  Median OS: 5.9 months
  Median PFS: 2.1 months
Performance status ECOG 1
  Median OS: 2.4 months
  Median PFS: 1.2 months
[16]
  HR OS: 2.09
  HR PFS: 2.27
Peritoneal No
  Median OS: 5.5 months
  Median PFS: 2.0 months
[17]
  HR OS: 0.82
  HR PFS: 0.87
Peritoneal Yes
  Median OS: 5.1 months
  Median PFS: 1.9 months
Pre-chemo numbers <4
  Median OS: 6.0 months
  Median PFS: 2.0 months
Pre-chemo numbers ≥4
  Median OS: 4.7 months
  Median PFS: 1.8 months
[18]
  HR OS: 1.16
  HR PFS: 0.95
Primary tumor resection No
  Median OS: 4.2 months
  Median PFS: 2.0 months
[19]
  HR OS: 1.04
  HR PFS: 0.79
Primary tumor resection Yes
  Median OS: 5.6 months
  Median PFS: 1.9 months

Reference: US20190233884A1 (University of Southern California, priority 2016, published 2019)
